Article PMC3138047 (Evidence-based Complementary and Alternative Medicine : eCAM, 2011)
pIC50: −log10 of the molar value.

What was measured:
Experiment in all cases: [3H]-dTTP incorporation into poly(dA)/oligo(dT)[…]
Format in all cases: biochemical
human pol λ [1] = biological target: T1, human pol λ (Homo sapiens, UniProt Q9UGP5)
T1 construct: gene POLL; recombinant, His-tagged
T1 sequence (Q9UGP5 1-575): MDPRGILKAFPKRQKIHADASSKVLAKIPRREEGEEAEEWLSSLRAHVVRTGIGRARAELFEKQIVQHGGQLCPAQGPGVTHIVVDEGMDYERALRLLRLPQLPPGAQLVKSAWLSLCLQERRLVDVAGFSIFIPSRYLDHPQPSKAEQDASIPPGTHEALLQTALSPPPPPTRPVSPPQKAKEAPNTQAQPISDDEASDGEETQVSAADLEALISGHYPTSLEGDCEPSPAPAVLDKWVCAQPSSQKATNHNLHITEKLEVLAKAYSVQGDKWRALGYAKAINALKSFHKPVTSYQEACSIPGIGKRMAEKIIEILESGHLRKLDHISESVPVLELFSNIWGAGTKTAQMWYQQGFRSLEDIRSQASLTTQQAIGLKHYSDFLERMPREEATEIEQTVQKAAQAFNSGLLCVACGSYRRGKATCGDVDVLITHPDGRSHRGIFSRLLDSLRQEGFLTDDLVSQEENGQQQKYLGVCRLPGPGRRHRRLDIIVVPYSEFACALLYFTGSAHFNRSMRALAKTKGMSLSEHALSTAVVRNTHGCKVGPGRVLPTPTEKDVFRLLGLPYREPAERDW

human pol γ = biological target: T2, human pol γ (Homo sapiens, UniProt P54098)
T2 construct: gene POLG
T2 sequence (P54098 1-1239): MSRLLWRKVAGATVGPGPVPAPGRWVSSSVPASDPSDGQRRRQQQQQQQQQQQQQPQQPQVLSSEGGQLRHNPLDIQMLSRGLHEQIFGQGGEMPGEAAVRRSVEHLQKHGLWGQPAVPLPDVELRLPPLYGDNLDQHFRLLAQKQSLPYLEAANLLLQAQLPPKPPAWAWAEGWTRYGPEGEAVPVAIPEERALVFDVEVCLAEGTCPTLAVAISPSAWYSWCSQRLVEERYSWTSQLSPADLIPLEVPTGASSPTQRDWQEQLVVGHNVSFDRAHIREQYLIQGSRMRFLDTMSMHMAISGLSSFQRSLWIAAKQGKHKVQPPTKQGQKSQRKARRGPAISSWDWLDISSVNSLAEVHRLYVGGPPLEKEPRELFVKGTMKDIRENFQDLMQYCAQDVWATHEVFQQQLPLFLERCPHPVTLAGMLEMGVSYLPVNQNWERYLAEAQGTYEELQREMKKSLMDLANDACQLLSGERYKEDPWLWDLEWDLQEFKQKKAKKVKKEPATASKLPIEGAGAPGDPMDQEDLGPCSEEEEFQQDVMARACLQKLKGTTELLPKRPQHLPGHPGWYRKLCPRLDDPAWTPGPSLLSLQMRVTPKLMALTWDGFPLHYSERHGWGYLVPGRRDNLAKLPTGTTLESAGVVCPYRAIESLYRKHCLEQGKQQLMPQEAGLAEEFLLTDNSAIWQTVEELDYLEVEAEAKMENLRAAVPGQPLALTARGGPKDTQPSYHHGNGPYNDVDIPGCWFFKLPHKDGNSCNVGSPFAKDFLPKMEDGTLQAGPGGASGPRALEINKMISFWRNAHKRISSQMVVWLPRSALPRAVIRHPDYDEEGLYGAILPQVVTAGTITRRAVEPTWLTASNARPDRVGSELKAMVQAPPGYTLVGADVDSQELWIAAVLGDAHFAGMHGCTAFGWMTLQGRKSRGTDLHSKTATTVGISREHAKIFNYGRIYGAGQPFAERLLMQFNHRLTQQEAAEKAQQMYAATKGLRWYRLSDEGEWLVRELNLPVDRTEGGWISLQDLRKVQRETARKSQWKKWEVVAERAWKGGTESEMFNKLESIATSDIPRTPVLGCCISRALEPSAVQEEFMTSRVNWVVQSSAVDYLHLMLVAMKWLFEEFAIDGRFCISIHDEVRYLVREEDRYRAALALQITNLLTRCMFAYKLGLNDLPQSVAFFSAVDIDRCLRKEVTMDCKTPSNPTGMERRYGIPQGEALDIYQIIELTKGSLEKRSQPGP

human pol κ [2] = biological target: T3, human pol κ (Homo sapiens, UniProt Q9UBT6)
T3 construct: gene POLK; truncated, residues 1-560, C-terminal 6xHis tag, produced in E. coli
T3 sequence (Q9UBT6 1-560): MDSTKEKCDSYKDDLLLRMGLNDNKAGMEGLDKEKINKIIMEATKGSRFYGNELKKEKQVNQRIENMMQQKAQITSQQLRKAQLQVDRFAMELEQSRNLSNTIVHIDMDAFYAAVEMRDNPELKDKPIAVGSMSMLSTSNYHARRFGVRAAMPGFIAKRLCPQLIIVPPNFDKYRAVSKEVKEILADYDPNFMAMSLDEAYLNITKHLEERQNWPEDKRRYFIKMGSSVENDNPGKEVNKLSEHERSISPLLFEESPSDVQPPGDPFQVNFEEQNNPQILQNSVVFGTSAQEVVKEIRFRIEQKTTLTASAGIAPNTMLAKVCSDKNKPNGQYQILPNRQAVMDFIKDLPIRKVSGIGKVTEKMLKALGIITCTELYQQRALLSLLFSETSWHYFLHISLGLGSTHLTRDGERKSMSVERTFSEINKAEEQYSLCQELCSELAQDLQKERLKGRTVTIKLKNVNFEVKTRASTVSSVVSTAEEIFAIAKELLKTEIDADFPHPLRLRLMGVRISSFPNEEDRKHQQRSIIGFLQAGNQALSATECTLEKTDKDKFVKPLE

calf pol α = biological target: T4, calf pol α (Bos taurus, UniProt A0AAA9THK8); settings: read-out: relative pol activity at 100 μM
T4 construct: gene POLA1; with DNA polymerase alpha subunit B; DNA primase small subunit; DNA primase large subunit
T4 sequence (A0AAA9THK8 1-1487): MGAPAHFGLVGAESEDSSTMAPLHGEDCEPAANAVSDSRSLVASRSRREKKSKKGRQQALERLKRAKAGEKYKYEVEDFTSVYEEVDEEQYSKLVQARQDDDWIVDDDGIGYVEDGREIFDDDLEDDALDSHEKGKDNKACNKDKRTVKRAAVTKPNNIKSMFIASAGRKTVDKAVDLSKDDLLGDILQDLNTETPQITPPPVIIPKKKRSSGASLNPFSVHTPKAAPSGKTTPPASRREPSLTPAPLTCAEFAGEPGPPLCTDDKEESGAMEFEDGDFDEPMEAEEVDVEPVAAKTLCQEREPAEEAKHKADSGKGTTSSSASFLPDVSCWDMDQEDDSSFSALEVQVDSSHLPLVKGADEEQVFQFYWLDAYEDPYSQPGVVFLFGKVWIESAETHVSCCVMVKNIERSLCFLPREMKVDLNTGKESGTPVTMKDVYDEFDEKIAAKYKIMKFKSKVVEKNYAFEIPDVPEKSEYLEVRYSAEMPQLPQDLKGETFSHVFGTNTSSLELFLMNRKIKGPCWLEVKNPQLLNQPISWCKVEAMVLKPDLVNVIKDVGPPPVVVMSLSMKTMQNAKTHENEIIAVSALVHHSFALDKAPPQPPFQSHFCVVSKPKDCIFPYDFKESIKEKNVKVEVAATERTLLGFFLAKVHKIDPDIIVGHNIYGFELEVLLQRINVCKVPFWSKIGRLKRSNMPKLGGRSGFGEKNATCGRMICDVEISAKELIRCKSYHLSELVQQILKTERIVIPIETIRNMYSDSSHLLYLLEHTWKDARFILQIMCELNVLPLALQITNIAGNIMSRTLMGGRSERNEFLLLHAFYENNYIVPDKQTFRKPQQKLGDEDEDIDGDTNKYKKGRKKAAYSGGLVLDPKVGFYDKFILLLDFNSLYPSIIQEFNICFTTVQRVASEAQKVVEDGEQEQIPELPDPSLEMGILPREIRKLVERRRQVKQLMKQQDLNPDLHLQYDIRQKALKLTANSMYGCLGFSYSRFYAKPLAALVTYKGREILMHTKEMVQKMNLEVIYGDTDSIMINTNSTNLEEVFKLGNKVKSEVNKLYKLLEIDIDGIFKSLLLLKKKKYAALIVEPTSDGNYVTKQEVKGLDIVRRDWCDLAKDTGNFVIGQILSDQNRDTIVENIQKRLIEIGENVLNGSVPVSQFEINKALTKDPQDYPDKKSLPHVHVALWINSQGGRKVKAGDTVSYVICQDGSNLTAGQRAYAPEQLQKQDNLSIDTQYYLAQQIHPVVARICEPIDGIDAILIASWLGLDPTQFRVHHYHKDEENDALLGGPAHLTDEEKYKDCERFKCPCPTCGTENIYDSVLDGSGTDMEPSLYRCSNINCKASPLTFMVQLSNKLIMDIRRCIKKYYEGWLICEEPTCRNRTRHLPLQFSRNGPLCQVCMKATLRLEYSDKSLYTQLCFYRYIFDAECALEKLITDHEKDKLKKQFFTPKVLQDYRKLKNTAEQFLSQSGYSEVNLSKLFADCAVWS
T4 sequence (Q58D13 whole entry partner): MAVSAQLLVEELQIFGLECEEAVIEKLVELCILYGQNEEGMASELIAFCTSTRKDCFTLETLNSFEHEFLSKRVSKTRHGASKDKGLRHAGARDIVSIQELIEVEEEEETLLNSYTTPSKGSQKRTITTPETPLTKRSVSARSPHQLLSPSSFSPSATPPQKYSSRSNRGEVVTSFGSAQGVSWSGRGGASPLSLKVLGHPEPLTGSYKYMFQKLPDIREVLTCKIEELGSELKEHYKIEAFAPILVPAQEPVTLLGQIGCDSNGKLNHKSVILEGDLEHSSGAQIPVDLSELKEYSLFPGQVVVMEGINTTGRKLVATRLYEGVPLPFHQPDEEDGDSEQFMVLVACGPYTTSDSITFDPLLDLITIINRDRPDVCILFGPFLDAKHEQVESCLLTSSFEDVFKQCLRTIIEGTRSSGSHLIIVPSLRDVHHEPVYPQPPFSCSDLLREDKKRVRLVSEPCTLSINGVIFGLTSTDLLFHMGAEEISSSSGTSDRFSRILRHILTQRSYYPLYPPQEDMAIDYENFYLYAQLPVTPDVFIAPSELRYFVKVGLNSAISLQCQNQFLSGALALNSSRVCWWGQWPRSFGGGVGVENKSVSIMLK
T4 sequence (A0A3Q1MF00 1-418 partner): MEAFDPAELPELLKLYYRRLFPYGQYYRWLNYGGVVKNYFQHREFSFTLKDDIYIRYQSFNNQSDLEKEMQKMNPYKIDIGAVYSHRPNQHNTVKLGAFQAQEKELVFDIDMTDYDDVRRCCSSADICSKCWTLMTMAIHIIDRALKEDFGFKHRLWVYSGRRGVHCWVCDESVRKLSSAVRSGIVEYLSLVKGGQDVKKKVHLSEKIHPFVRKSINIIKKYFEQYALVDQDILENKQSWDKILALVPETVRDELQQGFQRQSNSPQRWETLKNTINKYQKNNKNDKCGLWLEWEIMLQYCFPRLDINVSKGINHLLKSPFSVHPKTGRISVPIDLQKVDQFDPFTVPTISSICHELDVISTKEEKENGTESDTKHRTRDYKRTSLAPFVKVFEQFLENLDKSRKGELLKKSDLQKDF
T4 sequence (A0JNF4 1-506 partner): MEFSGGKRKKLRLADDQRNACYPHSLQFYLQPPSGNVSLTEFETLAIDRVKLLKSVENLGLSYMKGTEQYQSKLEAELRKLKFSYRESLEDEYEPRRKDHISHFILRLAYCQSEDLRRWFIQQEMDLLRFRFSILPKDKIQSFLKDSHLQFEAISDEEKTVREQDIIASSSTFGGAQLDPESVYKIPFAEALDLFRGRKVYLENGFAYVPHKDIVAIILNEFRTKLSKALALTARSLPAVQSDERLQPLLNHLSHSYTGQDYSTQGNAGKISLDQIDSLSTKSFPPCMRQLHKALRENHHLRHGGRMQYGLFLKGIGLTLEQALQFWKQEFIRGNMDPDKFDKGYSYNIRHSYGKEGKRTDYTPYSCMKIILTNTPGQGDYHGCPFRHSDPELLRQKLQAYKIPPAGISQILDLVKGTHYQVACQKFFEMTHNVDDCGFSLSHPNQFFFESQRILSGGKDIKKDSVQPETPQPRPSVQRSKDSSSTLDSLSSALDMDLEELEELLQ

human pol κ [3] = biological target: T3, human pol κ; settings: read-out: relative pol activity at 100 μM
human pol λ [4] = biological target: T1, human pol λ; settings: read-out: relative pol activity at 100 μM

Structure (SMILES)	pIC50 (human pol λ [1])	pIC50 (human pol γ)	pIC50 (human pol κ [2])	activity at 100 µM (calf pol α) [%]	activity at 100 µM (human pol κ [3]) [%]	activity at 100 µM (human pol λ [4]) [%]
CC1(C)[C@@H](O)CC[C@]2(C)[C@H]3C(=O)C=C4[C@@H]5C[C@@](C)(C(=O)O)CC[C@]5(C)CC[C@@]4(C)[C@]3(C)CC[C@@H]12 [compound 3, Glycyrrhetinic acid]	4.86	4.71	4.80	–	–	–
CC1(C)[C@@H](O[C@H]2O[C@H](C(=O)O)[C@@H](O)[C@H](O)[C@H]2O[C@@H]2O[C@H](C(=O)O)[C@@H](O)[C@H](O)[C@H]2O)CC[C@]2(C)[C@H]3C(=O)C=C4[C@@H]5C[C@@](C)(C(=O)O)CC[C@]5(C)CC[C@@]4(C)[C@]3(C)CC[C@@H]12 [compound 1, 3-O-(2-O-β-D-glucopyranuronosyl-α-D-glucopyranuronosyl)-18β-glycyrrhetinic acid]	–	–	–	< 50	< 50	< 50
CC1(C)[C@@H](O[C@@H]2O[C@H](C(=O)O)[C@@H](O)[C@H](O)[C@H]2O[C@@H]2O[C@H](C(=O)O)[C@@H](O)[C@H](O)[C@H]2O)CC[C@]2(C)[C@H]3C(=O)C=C4[C@@H]5C[C@@](C)(C(=O)O)CC[C@]5(C)CC[C@@]4(C)[C@]3(C)CC[C@@H]12 [compound 2, dipotassium glycyrrhizate]	–	–	–	< 50	–	< 50
